{"source": "patent EP2340832A1", "about": "“Morphinan-6-one compounds for the treatment or prevention of neurodegenerative diseases” (Universität Innsbruck, priority 2009, dated 2011)", "molecular_target": "µ opioid receptor (Rattus norvegicus, UniProt P33535)", "sequence (P33535 whole entry)": "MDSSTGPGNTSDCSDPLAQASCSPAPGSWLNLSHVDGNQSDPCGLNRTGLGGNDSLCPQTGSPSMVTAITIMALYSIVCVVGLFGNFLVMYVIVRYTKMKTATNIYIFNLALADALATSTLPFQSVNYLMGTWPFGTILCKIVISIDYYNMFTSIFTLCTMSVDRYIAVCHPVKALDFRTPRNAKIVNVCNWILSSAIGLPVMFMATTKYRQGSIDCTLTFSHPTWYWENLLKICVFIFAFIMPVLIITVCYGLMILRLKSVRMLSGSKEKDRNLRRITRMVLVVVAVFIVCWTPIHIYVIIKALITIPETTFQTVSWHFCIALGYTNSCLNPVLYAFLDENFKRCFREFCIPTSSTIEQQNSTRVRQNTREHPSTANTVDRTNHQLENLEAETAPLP", "assay": "[35S]GTPγS functional assay, rat brain membranes, µ receptor", "assay_type": "biochemical, Sprague-Dawley rat", "set-up": "from tissue; host or cells: Sprague-Dawley rat brain (without cerebella) membranes", "conditions": "read-out: Emax (% of basal activity)", "description": "Membrane fractions were prepared from Sprague-Dawley rat or guinea pig brains as described above. To determine binding of [^35S]GTPyS, rat or guinea pig brain membranes (10 µg of protein) were incubated for 60 min at 30 °C in Tris-EGTA buffer (50 mM Tris-HCl buffer, 3 mM MgCl2, 1 mM EGTA, […], pH 7.4) containing 30 µM GDP, 0.05 nM [^35S]GTPyS and appropriate concentrations of the respective compounds according to the present invention in a final volume of 1 ml. The reaction was terminated by vacuum filtration through Whatman GF/B glass fibre filters. Filters were washed three times with ice-cold 50 mM Tris-HCI buffer (pH 7.4) and the bound radioactivity was measured by liquid scintillation counting (Beckman Coulter™ LS6500). Basal activity was determined by subtracting the non-specific binding (measured in the presence of 100 µM unlabelled GTPyS) from the total binding (measured in the absence of the compound).\nStimulation produced by the compound is given as percentage of the basal activity (given as 100%). Functional data, EC50 (nM; half maximal effective concentration) and maximal stimulation Emax (% stimulation over basal level; maximal effective concentration), were calculated by using nonlinear regression analysis and sigmoidal curve fitting GraphPad Prism (San Diego, CA, USA) program. […]", "data": [{"smiles": "C[C@@H](NC(=O)[C@@H](N)Cc1ccc(O)cc1)C(=O)NCC(=O)N(C)[C@@H](Cc1ccccc1)C(=O)NCCO", "note": "[DAMGO, [D-Ala^2, Me-Phe ^4, Gly-ol^5]enkephalin]", "values": [{"measurement": "Emax", "value": "179 ± 5", "unit": "%"}]}]}
